Where two headings read alike, the source gives them in different places.
Biological target: T1, GAβ-dependent amyloid fibril formation (Human Aβ1-40 + GM1-containing liposome) (Homo sapiens, UniProt P05067)
T1 construct: Human Aβ1-40 (cat. #4307-v, prepared by Peptide Institute); purchased Peptide Institute 4307-v
Assay: Thioflavin T (ThT) assay of GAβ-dependent amyloid fibril formation (Aβ1-40 with GM1-containing liposome)
Type: biochemical
Summary of the method: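 Human Aβ1-40 (75 μM stock) pre-incubated 10 min at room temperature with compound (75 or 15 μM solution), then GM1-containing cholesterol/sphingomyelin liposome added and incubated 37° C, 18 hours. Fibrils quantified by ThT fluorescence (ex 430/em 490 nm, pH 8.5 glycine buffer); inhibition as ratio to compound-free control.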

[1] = inhibition rate against amyloid fibril formation, final concentration of the compound 25 μM, read-out: Inhibitory activity ABC evaluation
[2] = read-out: ThT Inhibitory activity (% inhibition)
[3] = @25 μM, read-out: ThT Inhibitory activity (% inhibition)
[4] = final concentration of the compound 25 μM, ratio of ThT fluorescence intensity with/without compound, 37° C. for 18 hours, read-out: inhibition rate against amyloid fibril formation (inhibitory activity on a scale of A to C)

T1 sequence (P05067 672-711 limits assumed): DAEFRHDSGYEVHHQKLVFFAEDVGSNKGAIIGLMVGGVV

| SMILES | inhibition at 25 µM [1] [%] | other results |
| --- | --- | --- |
| CS(=O)(=O)Nc1ccc(-c2nnc([C@@H](CO)NC(=O)c3ccc(Cl)cc3)o2)cc1 [Compound 108, (R)-4-chloro-N-(2-hydroxy-1-(5-(4-(methyl-sulfonamido)phenyl)-1,3,4-oxzdiazol-2-yl)ethyl)benzamide] | < 40 |  |
| O=C(N[C@@H](CO)c1nc(-c2cc(Cl)c(Cl)[nH]2)no1)c1ccc(F)cc1 [Compound 249, N-[(1S)-1-[3-(4,5-dichloro-1H-pyrrol-2-yl)-1,2,4-oxadiazol-5-yl]-2-hydroxyethyl]-4-fluorobenzamide] | 40 to 80 |  |
| COc1ccc(-c2noc(C3CC(=O)N(c4ccc(Cl)cc4)C3)n2)cn1 (stereo not shown) [Compound 54, 1-(4-chlorophenyl)-4-{3-(6-methoxy-pyridin-3-yl)-1,2,4-oxadiazol-5-yl}pyrrolidin-2-one] | 40 to 80 |  |
| O=C(N[C@@H](CO)c1nc(-c2c[nH]c3ccc(Cl)cc23)no1)c1ccc(N2CCCC2)cc1 [Compound 253, N-[(1S)-1-[3-(5-chloro-1H-indol-3-yl)-1,2,4-oxadiazol-5-yl]-2-hydroxyethyl]-4-(pyrrolidin-1-yl) benzamide] | 40 to 80 |  |
| O=C(N[C@@H](CO)c1nc(-c2ccc3ccccc3n2)no1)c1ccc(F)cc1 [Compound 225, 4-fluoro-N-[(1S)-2-hydroxy-1-[3-(quinolin-2-yl)-1,2,4-oxadiazol-5-yl]ethyl] benzamide] | 40 to 80 |  |
| CS(=O)(=O)Nc1ccc(-c2noc(C3CC(=O)N(c4ccc(Cl)cc4)C3)n2)cc1 (stereo not shown) [Compound 65, N-(4-[5-{1-(4-chlorophenyl)-5-oxopyrrolidin-3-yl}-1,2,4-oxadiazol-3-yl]phenyl) methane-sulfonamide] | 40 to 80 |  |
| O=C(N[C@@H](CO)c1nc(-c2cc3ccccc3s2)no1)c1ccc(F)cc1 [Compound 232, N-[(1S)-1-[3-(1-benzothiophen-2-yl)-1,2,4-oxadiazol-5-yl]-2-hydroxyethyl]-4-fluorobenzamide] | > 80 |  |
| O=C(N[C@@H](CO)c1nc(-c2cnc3ccccc3c2)no1)c1ccc(F)cc1 [Compound 173, 4-fluoro-N-[(1S)-2-hydroxy-1-[3-(quinolin-3-yl)-1,2,4-oxadiazol-5-yl]ethyl] benzamide] | < 40 |  |
| O=C(N[C@@H](CO)c1nnc(-c2ccc(O)c(F)c2)o1)c1ccc(Cl)cc1 [Compound 120, (S)-4-chloro-N-(1-(5-(3-fluoro-4-hydroxyphenyl)-1,3,4-oxadiazol-2-yl)-2-hydroxy-ethyl)benzamide] | < 40 |  |
| O=C1CC(c2nc(-c3ccc(OC(F)(F)F)cc3)no2)CN1c1ccc(F)cc1 (stereo not drawn) [Compound 26, l-(4-fluorophenyl)-4-[3-{4-(trifluoro-methoxy)phenyl}-1,2,4-oxadiazol-5-yl]pyrrolidin-2-one] | 40 to 80 |  |
| O=C(NCCc1nc(-c2c[nH]c3ccccc23)no1)c1ccc(Cl)cc1 [Compound 71, N-[2-{3-(1H-indol-3-yl)-1,2,4-oxadiazol-5-yl}ethyl]-4-chloro-benzamide] | 40 to 80 |  |
| O=C(N[C@@H](CO)c1nc(-c2cccc(C(F)(F)F)c2)no1)c1ccccc1 [Compound 177, N-[(1S)-2-hydroxy-1-{3-[3-(trifluoromethyl)phenyl]-1,2,4-oxadiazol-5-yl}ethyl] benzamide] | > 80 |  |
| O=C(N[C@@H](CO)c1nc(-c2cccs2)no1)c1ccc(F)cc1 [Compound 178, 4-fluoro-N-[(1S)-2-hydroxy-1-[3-(thiophen-2-yl)-1,2,4-oxadiazol-5-yl]ethyl]benzamide] | 40 to 80 | inhibition at 25 µM [3]: 61% |
| O=C(NC(CO)c1nc(-c2ccc(C(F)(F)F)cc2)no1)c1ccc(F)cc1 (stereo in doubt) [Compound 152, 4-fluoro-N-[(1R)-2-hydroxy-1-{3-[4-(trifluoromethyl)phenyl]-1,2,4-oxa-diazol-5-yl}ethyl] benzamide] |  | Inhibitory activity ABC evaluation (inhibition rate against amyloid fibril formation, final concentration of the compound 25 μM, 25 µM): B (40% or more and less than 80% were evaluated as B) |
| N#Cc1ccc(C(=O)N[C@@H](CO)c2nc(-c3ccc(O)c(F)c3)no2)cc1 [Compound 100, (S)-4-cyano-N-(1-(3-(3-fluoro-4-hydroxyphenyl)-1,2,4-oxadiazol-5-yl)-2-hydroxy-ethyl)benzamide] | 40 to 80 |  |
| O=C(NC1(c2nc(-c3ccc(OC(F)(F)F)cc3)no2)CCCC1)c1ccc(Cl)nc1 [Compound 31, 6-chloro-N-(1-[3-{4-(trifluoromethoxy)phenyl}-1,2,4-oxadiazol-5-yl]cyclopentyl) nicotinamide] | < 40 |  |
| CCN(C)C(=O)Oc1ccc(-c2noc([C@H](CO)NC(=O)c3ccccc3)n2)cc1 [Compound 159] |  | inhibition at 25 µM (read-out: Inhibitory activity ABC evaluation): < 40% |
| O=C(N[C@@H](CO)c1nc(-c2cc(C(F)(F)F)cc(C(F)(F)F)c2)no1)c1ccc(F)cc1 [Compound 215, N-[(1S)-1-{3-[3,5-bis(trifluoromethyl)phenyl]-1,2,4-oxadiazol-5-yl}-2-hydroxyethyl]-4-fluorobenzamide] | 40 to 80 |  |

More lines, main results first:

| inhibition at 25 µM [1] [%] | SMILES | other results |
| --- | --- | --- |
| 40 to 80 | O=C(NC(CO)c1nc(-c2ccc(OC(F)(F)F)cc2)no1)c1c[nH]c2ccccc12 (stereo not shown) [Compound 46, N-(2-hydroxy-1-[3-{4-(trifluoro-methoxy)phenyl}-1,2,4-oxadiazol-5-yl]ethyl)-1H-indole-3-carboxamide] |  |
| > 80 | O=C(N[C@@H](CO)c1nc(-c2ccc(C(F)(F)F)cc2)no1)c1ccc(Cl)cc1 [Compound 129, (S)-4-chloro-N-(2-hydroxy-1-(3-(4-(tri-fluoromethyl)phenyl)-1,2,4-oxadiazol-5-yl)ethyl)benzamide] | inhibition at 5 µM [2]: 68%; inhibition at 25 µM [3]: 86%; inhibition at 25 µM [4]: > 80% |
| > 80 | O=C(N[C@@H](CO)c1nc(-c2ccc(OC(F)(F)F)cc2)no1)c1ccc(Cl)cc1 [Compound 39, (S)-4-chloro-N-(2-hydroxy-1-{3-[4-(trifluoromethoxy)phenyl]-1,2,4-oxadiazol-5-yl}ethyl)benzamide] | inhibition at 25 µM [3]: 98%; inhibition at 25 µM [4]: > 80% |
| 40 to 80 | O=C(N[C@@H](CO)c1nc(-c2cccc(C(F)(F)F)c2)no1)c1ccc(F)c(Cl)c1 [Compound 242, 3-chloro-4-fluoro-N-[(1S)-2-hydroxy-1-{3-[3-(trifluoromethyl)phenyl]-1,2,4-oxadiazol-5-yl}ethyl]benzamide] | inhibition at 25 µM [3]: 59% |
| 40 to 80 | O=C(N[C@@H](CO)c1nc(-c2ccccc2C(F)(F)F)no1)c1ccc(F)cc1 [Compound 181, 4-fluoro-N-[(1S)-2-hydroxy-1-{3-[2-(trifluoromethyl)phenyl]-1,2,4-oxadiazol-5-yl}ethyl]benzamide] | inhibition at 25 µM [3]: 73% |
| > 80 | O=C(N[C@@H](CO)c1nc(-c2ccc(OC(F)(F)F)cc2)no1)c1cccc(Cl)c1 [Compound 63, (S)-3-chloro-N-(2-hydroxy-1-[3-{4-(trifluoro-methoxy)phenyl}-1,2,4-oxadiazol-5-yl]ethyl) benzamide] | inhibition at 5 µM [2]: 53%; inhibition at 25 µM [3]: 99% |
| 40 to 80 | O=C(NC(CN1CCOCC1)c1nnc(-c2ccc(OC(F)(F)F)cc2)o1)c1ccc(Cl)cc1 (stereo not shown) [Compound 117, 4-chloro-N-(2-morpholino-1-(5-(4-(trifluoro-methoxy)phenyl)-1,3,4-oxadiazol-2-yl)ethyl) benzamide] |  |
| 40 to 80 | CCOCCOc1ccc(C(=O)N[C@@H](CO)c2nc(-c3ccc(OC(F)(F)F)cc3)no2)cc1 [Compound 169, 4-(2-ethoxyethoxy)-N-[(1S)-2-hydroxy-1-{3-[4-(trifluoromethoxy)phenyl]-1,2,4-oxadiazol-5-yl}ethyl] benzamide] |  |
| 40 to 80 | CN(C)C(=O)C[C@H](NC(=O)c1ccc(Cl)cc1)c1nc(-c2ccc(OC(F)(F)F)cc2)no1 [Compound 87, (S)-4-chloro-N-(3-(dimethylamino)-3-oxo-1-[3-{4-(trifluoromethoxy)phenyl}-1,2,4-oxadiazol-5-yl]propyl) benzamide] |  |
| 40 to 80 | O=C(N[C@@H](CCO)c1nc(-c2ccc(OC(F)(F)F)cc2)no1)c1ccc(Cl)cc1 [Compound 75, (S)-4-chloro-N-(3-hydroxy-1-[3-{4-(trifluoro-methoxy)phenyl}-1,2,4-oxadiazol-5-yl]propyl) benzamide] |  |
| 40 to 80 | O=C(N[C@@H](CO)c1nc(-c2ccc(C(F)(F)F)cc2)no1)c1ccc(Cl)cn1 [Compound 239, 5-chloro-N-[(1S)-2-hydroxy-1-{3-[4-(trifluoromethyl)phenyl]-1,2,4-oxadiazol-5-yl}ethyl]pyridine-2-carboxamide] | inhibition at 25 µM [3]: 64% |
| 40 to 80 | O=C(c1ccc(Cl)cc1)N1CC[C@H](O)[C@H]1c1nc(-c2ccc(OC(F)(F)F)cc2)no1 [Compound 131, (4-chlorophenyl) ((2S,3S)-3-hydroxy-2-(3-(4-(trifluoro-methoxy)phenyl)-1,2,4-oxadiazol-5-yl)pyrrolidin-1-yl)methanone] |  |
| > 80 | O=C(N[C@@H](CO)c1nc(-c2ccc(C(F)(F)F)cc2)no1)c1ccc(F)c(Cl)c1 [Compound 195, 3-chloro-4-fluoro-N-[(1S)-2-hydroxy-1-{3-[4-(trifluoromethyl)phenyl]-1,2,4-oxadiazol-5-yl}ethyl]benzamide] |  |
| < 40 | O=C(N[C@H](CO)c1nc(-c2ccc(C(F)(F)F)cc2)no1)c1ccccc1 [Compound 213, N-[(1R)-2-hydroxy-1-{3-[4-(trifluoromethyl)phenyl]-1,2,4-oxadiazol-5-yl}ethyl]benzamide] |  |
